Reference: the Kinase Knowledgebase extract (Sharma et al. 2016)
pKi: −log10 of the molar value.

Target: PIK3CD (Human) (UniProt O00329)
Assay: Enzyme Assay

Chain of PIK3CD (Human) (O00329 whole entry, looked up): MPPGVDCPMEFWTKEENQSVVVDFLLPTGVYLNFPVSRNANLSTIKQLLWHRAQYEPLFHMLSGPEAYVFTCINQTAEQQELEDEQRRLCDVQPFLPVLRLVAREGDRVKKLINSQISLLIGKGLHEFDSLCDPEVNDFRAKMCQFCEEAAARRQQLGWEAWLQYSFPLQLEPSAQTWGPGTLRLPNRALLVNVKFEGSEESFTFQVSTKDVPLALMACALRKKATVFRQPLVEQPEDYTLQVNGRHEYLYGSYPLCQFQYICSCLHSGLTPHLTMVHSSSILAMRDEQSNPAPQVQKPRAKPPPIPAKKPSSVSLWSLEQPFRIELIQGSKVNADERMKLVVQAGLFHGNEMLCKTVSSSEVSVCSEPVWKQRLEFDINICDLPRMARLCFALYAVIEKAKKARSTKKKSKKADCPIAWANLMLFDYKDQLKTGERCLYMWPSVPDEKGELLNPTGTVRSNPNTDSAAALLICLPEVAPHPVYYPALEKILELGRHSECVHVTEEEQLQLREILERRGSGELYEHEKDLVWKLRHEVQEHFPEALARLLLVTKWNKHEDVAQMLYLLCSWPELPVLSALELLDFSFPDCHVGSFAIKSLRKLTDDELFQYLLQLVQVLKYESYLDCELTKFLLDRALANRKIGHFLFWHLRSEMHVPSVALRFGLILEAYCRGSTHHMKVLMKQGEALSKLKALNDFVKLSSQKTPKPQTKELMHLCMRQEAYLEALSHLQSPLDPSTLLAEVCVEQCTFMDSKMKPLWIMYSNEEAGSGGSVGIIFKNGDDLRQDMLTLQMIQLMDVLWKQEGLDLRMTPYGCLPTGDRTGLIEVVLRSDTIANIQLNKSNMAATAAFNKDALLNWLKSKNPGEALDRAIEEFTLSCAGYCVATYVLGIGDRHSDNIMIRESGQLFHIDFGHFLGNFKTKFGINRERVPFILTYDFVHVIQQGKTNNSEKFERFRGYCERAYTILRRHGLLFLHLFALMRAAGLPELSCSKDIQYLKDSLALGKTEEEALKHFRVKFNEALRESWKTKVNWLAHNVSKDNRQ

| SMILES | pKi |
| --- | --- |
| C[C@@H](Nc1ncnc(N)c1C#N)c1nc2ccc(F)cc2n1-c1cccc(C#N)c1.C[C@H](Nc1ncnc(N)c1C#N)c1nc2ccc(F)cc2n1-c1cccc(C#N)c1 | 7.54 |
| C[C@@H](Nc1ncnc(N)c1C#N)c1nc2cccc(C#N)c2n1-c1cncc(F)c1.C[C@H](Nc1ncnc(N)c1C#N)c1nc2cccc(C#N)c2n1-c1cncc(F)c1 | 6.75 |
| C[C@@H](Nc1ncnc(N)c1C#N)c1nc2cccc(Br)c2n1-c1cncc(F)c1.C[C@H](Nc1ncnc(N)c1C#N)c1nc2cccc(Br)c2n1-c1cncc(F)c1 | 7.16 |
| C[C@@H](Nc1ncnc(N)c1C#N)c1nc2cc(F)ccc2n1-c1cncc(F)c1.C[C@H](Nc1ncnc(N)c1C#N)c1nc2cc(F)ccc2n1-c1cncc(F)c1 | 6.83 |
| C[C@@H](Nc1ncnc(N)c1C#N)c1nc2ccc(F)cc2n1-c1ccc(-c2cccnc2)nc1 | 5.92 |
| C[C@@H](Nc1ncnc(N)c1C#N)c1nc2ncccc2n1-c1ccccn1.C[C@H](Nc1ncnc(N)c1C#N)c1nc2ncccc2n1-c1ccccn1 | 5.54 |
| C[C@@H](Nc1ncnc(N)c1C#N)c1nc2ccc(F)cc2n1-c1cncc(NS(C)(=O)=O)c1.C[C@H](Nc1ncnc(N)c1C#N)c1nc2ccc(F)cc2n1-c1cncc(NS(C)(=O)=O)c1 | 7.84 |
| C[C@@H](Nc1ncnc(N)c1C#N)c1nc2c(F)cc(F)cc2n1-c1cccnc1.C[C@H](Nc1ncnc(N)c1C#N)c1nc2c(F)cc(F)cc2n1-c1cccnc1 | 7.65 |
| C[C@H](Nc1ncnc(N)c1C#N)c1nc2ccc(F)cc2n1-c1ccc(-c2cccnc2)nc1 | 6.61 |
| CNC(=O)c1cccc(-n2c([C@@H](C)Nc3ncnc(N)c3C#N)nc3ccc(F)cc32)c1.CNC(=O)c1cccc(-n2c([C@H](C)Nc3ncnc(N)c3C#N)nc3ccc(F)cc32)c1 | 7.51 |

More lines, in order of rising pKi, values ahead:

| pKi | SMILES |
| --- | --- |
| 7.05 | CNC(=O)c1cccc2nc([C@@H](C)Nc3ncnc(N)c3C#N)n(-c3cncc(F)c3)c12.CNC(=O)c1cccc2nc([C@H](C)Nc3ncnc(N)c3C#N)n(-c3cncc(F)c3)c12 |
| 7.06 | C[C@@H](Nc1ncnc(N)c1C#N)c1nc2c(F)cccc2n1-c1cncc(F)c1.C[C@H](Nc1ncnc(N)c1C#N)c1nc2c(F)cccc2n1-c1cncc(F)c1 |
| 7.34 | C[C@@H](Nc1ncnc(N)c1C#N)c1nc2ccc(F)cc2n1-c1cncc(Br)c1.C[C@H](Nc1ncnc(N)c1C#N)c1nc2ccc(F)cc2n1-c1cncc(Br)c1 |
| 7.61 | C[C@@H](Nc1ncnc(N)c1C#N)c1nc2ccc(F)cc2n1-c1cccc(F)n1.C[C@H](Nc1ncnc(N)c1C#N)c1nc2ccc(F)cc2n1-c1cccc(F)n1 |
| 8.42 | C[C@@H](Nc1ncnc(N)c1C#N)c1nc2cccc(S(C)(=O)=O)c2n1C1CC1.C[C@H](Nc1ncnc(N)c1C#N)c1nc2cccc(S(C)(=O)=O)c2n1C1CC1 |
